In ChEMBL document CHEMBL1130004, “Bioactivities and secondary structures of constrained analogues of human parathyroid hormone: cyclic lactams of the receptor binding region” (J Med Chem, 1997):
Positions of bridges follow the written chain, without caps; N, C: chain ends. Residues, ends and D or L forms follow the SMILES beside them.

species on record: Rattus norvegicus; assay: Adenylyl cyclase stimulating activity expressed as effective dose was measured in rat osteosarcoma 17/2 cells; format: functional, cell-based

| Compound | EC50 |
| --- | --- |
| CC[C@H](C)[C@H](NC(=O)[C@H](CCC(=O)O)NC(=O)[C@H](CO)NC(=O)[C@@H](NC(=O)[C@@H](N)CO)C(C)C)C(=O)N[C@@H](CCC(N)=O)C(=O)N[C@@H](CC(C)C)C(=O)N[C@@H](CCSC)C(=O)N[C@@H](Cc1c[nH]cn1)C(=O)N[C@@H](CC(N)=O)C(=O)N[C@@H](CC(C)C)C(=O)NCC(=O)N[C@@H](CCCCN)C(=O)N[C@@H](Cc1c[nH]cn1)C(=O)N[C@@H](CC(C)C)C(=O)N[C@@H](CC(N)=O)C(=O)N[C@@H](CO)C(=O)N[C@@H](CCSC)C(=O)N[C@@H](CCC(=O)O)C(=O)N[C@@H](CCCN=C(N)N)C(=O)N[C@H](C(=O)N[C@@H](CCC(=O)O)C(=O)N[C@@H](Cc1c[nH]c2ccccc12)C(=O)N[C@@H](CC(C)C)C(=O)N[C@@H](CCCN=C(N)N)C(=O)N[C@@H](CCCCN)C(=O)N[C@H]1CCCCNC(=O)C[C@@H](C(=O)N[C@H](C(N)=O)C(C)C)NC(=O)[C@H](CCC(N)=O)NC(=O)[C@H](CC(C)C)NC1=O)C(C)C | 40.3 nM |
| H-SVSEIQLMHNLGKHLNSMERVEWLRKKLQD-NH2 | 20 nM |
| H-SVSEIQLMHNLGKHLNSMERVEWLRKLLQD-NH2 | 20 nM |

The remaining compounds from weak to strong by EC50, led by results:

| EC50 | Compound |
| --- | --- |
| 20 nM | CC[C@H](C)[C@H](NC(=O)[C@H](CCC(=O)O)NC(=O)[C@H](CO)NC(=O)[C@@H](NC(=O)[C@@H](N)CO)C(C)C)C(=O)N[C@@H](CCC(N)=O)C(=O)N[C@@H](CC(C)C)C(=O)N[C@@H](CCSC)C(=O)N[C@@H](Cc1c[nH]cn1)C(=O)N[C@@H](CC(N)=O)C(=O)N[C@@H](CC(C)C)C(=O)NCC(=O)N[C@@H](CCCCN)C(=O)N[C@@H](Cc1c[nH]cn1)C(=O)N[C@@H](CC(C)C)C(=O)N[C@@H](CC(N)=O)C(=O)N[C@@H](CO)C(=O)N[C@@H](CCSC)C(=O)N[C@@H](CCC(=O)O)C(=O)N[C@@H](CCCN=C(N)N)C(=O)N[C@H](C(=O)N[C@H]1CCC(=O)NCCCC[C@@H](C(=O)N[C@@H](CC(C)C)C(=O)N[C@@H](CC(C)C)C(=O)N[C@@H](CCC(N)=O)C(=O)N[C@@H](CC(=O)O)C(N)=O)NC(=O)[C@H](CCCN=C(N)N)NC(=O)[C@H](CC(C)C)NC(=O)[C@H](Cc2c[nH]c3ccccc23)NC1=O)C(C)C (H-SVSEIQLMHNLGKHLNSMERVEWLRKLLQD-NH2; lactam 22-26) |
| 11.5 nM | CC[C@H](C)[C@H](NC(=O)[C@H](CCC(=O)O)NC(=O)[C@H](CO)NC(=O)[C@@H](NC(=O)[C@@H](N)CO)C(C)C)C(=O)N[C@@H](CCC(N)=O)C(=O)N[C@@H](CC(C)C)C(=O)N[C@@H](CCSC)C(=O)N[C@@H](Cc1c[nH]cn1)C(=O)N[C@@H](CC(N)=O)C(=O)N[C@@H](CC(C)C)C(=O)NCC(=O)N[C@@H](CCCCN)C(=O)N[C@@H](Cc1c[nH]cn1)C(=O)N[C@@H](CC(C)C)C(=O)N[C@@H](CC(N)=O)C(=O)N[C@@H](CO)C(=O)N[C@@H](CCSC)C(=O)N[C@@H](CCC(=O)O)C(=O)N[C@@H](CCCN=C(N)N)C(=O)N[C@H](C(=O)N[C@@H](CCC(=O)O)C(=O)N[C@@H](Cc1c[nH]c2ccccc12)C(=O)N[C@@H](CC(C)C)C(=O)N[C@@H](CCCN=C(N)N)C(=O)N[C@@H](CCCCN)C(=O)N[C@@H](CC(C)C)C(=O)N[C@@H](CC(C)C)C(=O)N[C@@H](CCC(N)=O)C(=O)N[C@@H](CC(=O)O)C(=O)N[C@H](C(N)=O)C(C)C)C(C)C |
| 3.3 nM | CC[C@H](C)[C@H](NC(=O)[C@H](CCC(=O)O)NC(=O)[C@H](CO)NC(=O)[C@@H](NC(=O)[C@@H](N)CO)C(C)C)C(=O)N[C@@H](CCC(N)=O)C(=O)N[C@@H](CC(C)C)C(=O)N[C@@H](CCSC)C(=O)N[C@@H](Cc1c[nH]cn1)C(=O)N[C@@H](CC(N)=O)C(=O)N[C@@H](CC(C)C)C(=O)NCC(=O)N[C@@H](CCCCN)C(=O)N[C@@H](Cc1c[nH]cn1)C(=O)N[C@@H](CC(C)C)C(=O)N[C@@H](CC(N)=O)C(=O)N[C@@H](CO)C(=O)N[C@@H](CCSC)C(=O)N[C@@H](CCC(=O)O)C(=O)N[C@@H](CCCN=C(N)N)C(=O)N[C@H](C(=O)N[C@H]1CCC(=O)NCCCC[C@@H](C(=O)N[C@@H](CC(C)C)C(=O)N[C@@H](CC(C)C)C(=O)N[C@@H](CCC(N)=O)C(=O)N[C@@H](CC(=O)O)C(=O)N[C@H](C(N)=O)C(C)C)NC(=O)[C@H](CCCN=C(N)N)NC(=O)[C@H](CC(C)C)NC(=O)[C@H](Cc2c[nH]c3ccccc23)NC1=O)C(C)C (H-SVSEIQLMHNLGKHLNSMERVEWLRKLLQDV-NH2; lactam 22-26) |
